Earlier results, collected in paper PMC7395068, “The evolution of strategies to minimise the risk of human drug-induced liver injury (DILI) in drug discovery and development” (Archives of Toxicology, 2020).
Where two headings read alike, the source gives them in different places.

Details: cited from earlier work
[1] = binary in vivo human DILI call, ref Chen 2016
[2] = human DILI, LTKB DILIrank category, ref Chen 2016
[3] = binary in vivo DILI call given beside the severity category, ref Chen 2016
[4] = human DILI concern category (LTKB DILIrank), ref Chen 2016

| SMILES | DILI +VE (5-8), DILI -VE (-4) [1] | DILI severity category [2] | other results |
| --- | --- | --- | --- |
| CCNC(=O)[C@@H]1CCCN1C(=O)[C@H](CCCNC(=N)N)NC(=O)[C@H](CC(C)C)NC(=O)[C@@H](Cc1cn(Cc2ccccc2)cn1)NC(=O)[C@H](Cc1ccc(O)cc1)NC(=O)[C@H](CO)NC(=O)[C@H](Cc1c[nH]c2ccccc12)NC(=O)[C@H](Cc1cnc[nH]1)NC(=O)[C@@H]1CCC(=O)N1 [histrelin acetate] | -VE | Ambiguous DILI-concern | – |
| C/C1=C2/[N-][C@H]([C@H](CC(N)=O)[C@@]2(C)CCC(=O)NC[C@@H](C)OP(=O)([O-])O[C@H]2[C@@H](O)[C@@H](n3cnc4cc(C)c(C)cc43)O[C@@H]2CO)[C@]2(C)N=C(/C(C)=C3N=C(/C=C4N=C1[C@@H](CCC(N)=O)C\4(C)C)[C@@H](CCC(N)=O)[C@]\3(C)CC(N)=O)[C@@H](CCC(N)=O)[C@]2(C)CC(N)=O.[Co+3].[OH-] [hydroxocobalamin] | -VE | Ambiguous DILI-concern | – |
| CCN(CCO)CCCC(C)Nc1ccnc2cc(Cl)ccc12 (centres unmarked) [hydroxychloroquine] | +VE | vLess-DILI-Concern | – |
| CCCCCC(=O)O[C@]1(C(C)=O)CC[C@H]2[C@@H]3CCC4=CC(=O)CC[C@]4(C)[C@H]3CC[C@@]21C [hydroxyprogesterone caproate] | -VE | Ambiguous DILI-concern | – |
| CCCCCN(C)CCC(O)(P(=O)(O)O)P(=O)(O)O [ibandronate] | -VE | vNo-DILI-Concern | – |
| CCCCCCCN(CC)CCCC(O)c1ccc(NS(C)(=O)=O)cc1 (centres unmarked) [ibutilide] | – | – | DILI +VE (5-8), DILI -VE (-4) (in vivo): -VE; DILI severity category (in vivo): vNo-DILI-Concern |
| COc1cc(C(C)=O)ccc1OCCCN1CCC(c2noc3cc(F)ccc23)CC1 [iloperidone] | -VE | Ambiguous DILI-concern | – |
| CC1Cc2ccccc2N1NC(=O)c1ccc(Cl)c(S(N)(=O)=O)c1 (centres unmarked) [indapamide] | -VE | Ambiguous DILI-concern | – |
| CC1(C)C(/C=C/C=C/C=C/C=C2\N(CCCCS(=O)(=O)O)c3ccc4ccccc4c3C2(C)C)=[N+](CCCCS(=O)(=O)[O-])c2ccc3ccccc3c21 [indocyanine green] | -VE | vNo-DILI-Concern | – |
| O=C(CCCCC(=O)Nc1c(I)cc(I)c(C(=O)O)c1I)Nc1c(I)cc(I)c(C(=O)O)c1I [iodipamide meglumine] | -VE | vNo-DILI-Concern | – |
| CNC(=O)c1c(I)c(NC(C)=O)c(I)c(C(=O)O)c1I [iothalamate sodium] | -VE | vNo-DILI-Concern | – |
| CCc1c2c(nc3ccc(OC(=O)N4CCC(N5CCCCC5)CC4)cc13)-c1cc3c(c(=O)n1C2)COC(=O)[C@]3(O)CC [irinotecan] | – | – | DILI +VE (5-8), DILI -VE (-4) (in vivo): +VE; DILI severity category (in vivo): vLess-DILI-Concern |
| CC(C)Nc1ncccn1 [isaxonine] | +VE | vMost-DILI-Concern | – |
| O=[N+]([O-])O[C@@H]1CO[C@H]2[C@@H]1OC[C@@H]2O [isorbide mononitrate] | – | – | DILI +VE (5-8), DILI -VE (-4) (in vivo): -VE; DILI severity category (in vivo): Ambiguous DILI-concern |
| CC[C@H](C)[C@H]1O[C@]2(CC[C@@H]1C)C[C@@H]1C[C@@H](C/C=C(\C)[C@@H](O[C@H]3C[C@H](OC)[C@@H](O[C@H]4C[C@H](OC)[C@@H](O)[C@H](C)O4)[C@H](C)O3)[C@@H](C)/C=C/C=C3\CO[C@@H]4[C@H](O)C(C)=C[C@@H](C(=O)O1)[C@]34O)O2 [ivermectin] | +VE | vLess-DILI-Concern | – |
| C/C(=C\c1csc(C)n1)[C@@H]1C[C@@H]2O[C@]2(C)CCC[C@H](C)[C@H](O)[C@@H](C)C(=O)C(C)(C)[C@@H](O)CC(=O)N1 [ixabepilone] | -VE | Ambiguous DILI-concern | – |
| CNC1(c2ccccc2Cl)CCCCC1=O (centres unmarked) [ketamine] | +VE | vLess-DILI-Concern | – |
| C[N+](C)(C)C[C@H](O)CC(=O)[O-] [l-carnitine] | -VE | vNo-DILI-Concern | – |
| N[C@@H](CS)C(=O)O [l-cysteine] | – | – | DILI +VE (5-8), DILI -VE (-4) (in vivo): -VE; DILI severity category (in vivo): Ambiguous DILI-concern |
| CSCC[C@H](N)C(=O)O [l-methionine] | -VE | vNo-DILI-Concern | – |
| CC(C)[C@@H]1NC(=O)[C@H](CCCCN)NC(=O)[C@@H](Cc2c[nH]c3ccccc23)NC(=O)[C@H](Cc2ccc(O)cc2)NC(=O)[C@@H](NC(=O)[C@H](N)Cc2ccc3ccccc3c2)CSSC[C@@H](C(=O)N[C@H](C(N)=O)[C@@H](C)O)NC1=O [lanreotide acetate] | -VE | Ambiguous DILI-concern | – |
| Cc1c(OCC(F)(F)F)ccnc1C[S+]([O-])c1nc2ccccc2[nH]1 (centres unmarked) [lansoprazole] | +VE | vLess-DILI-Concern | – |
| O=C([O-])[O-].O=C([O-])[O-].O=C([O-])[O-].[La+3].[La+3] [lanthanum carbonate] | – | – | DILI +VE (5-8), DILI -VE (-4) (in vivo): -VE; DILI severity category (in vivo): vNo-DILI-Concern |
| Nc1cccc2c1CN(C1CCC(=O)NC1=O)C2=O (centres unmarked) [lenalidomide] | +VE | vLess-DILI-Concern | – |
| N#Cc1ccc(C(c2ccc(C#N)cc2)n2cncn2)cc1 [letrozole] | +VE | vLess-DILI-Concern | – |
| Nc1nc2c(c(=O)[nH]1)N(C=O)C(CNc1ccc(C(=O)N[C@@H](CCC(=O)O)C(=O)O)cc1)CN2 (some centres unmarked) [leucovorin] | -VE | vNo-DILI-Concern | – |

| SMILES | DILI +VE (5-8), DILI -VE (-4) [1] | DILI severity category [2] | other results |
| --- | --- | --- | --- |
| CN1c2c(nc(N)[nH]c2=O)NC[C@@H]1CNc1ccc(C(=O)N[C@@H](CCC(=O)O)C(=O)O)cc1 [levomefolate calcium] | – | – | DILI +VE (5-8), DILI -VE (-4) (in vivo): -VE; DILI severity category (in vivo): vNo-DILI-Concern |
| C#C[C@]1(O)CC[C@H]2[C@@H]3CCC4=CC(=O)CC[C@@H]4[C@H]3CC[C@@]21CC [levonorgestrel] | – | – | DILI +VE (5-8), DILI -VE (-4) (in vivo): -VE; DILI severity category (in vivo): vNo-DILI-Concern |
| CN1CC[C@]23CCCC[C@H]2[C@H]1Cc1ccc(O)cc13 [levorphanol] | -VE | vNo-DILI-Concern | – |
| N[C@@H](Cc1cc(I)c(Oc2cc(I)c(O)c(I)c2)c(I)c1)C(=O)O [levothyroxine] | +VE | vLess-DILI-Concern | – |
| CCC[C@@H]1C[C@@H](C(=O)N[C@@H]([C@H]2O[C@H](SC)[C@H](O)[C@@H](O)[C@H]2O)[C@@H](C)O)N(C)C1 [lincomycin] | -VE | Ambiguous DILI-concern | – |
| CC(=O)NC[C@H]1CN(c2ccc(N3CCOCC3)c(F)c2)C(=O)O1 [linezolid] | – | – | DILI +VE (5-8), DILI -VE (-4) (in vivo): +VE; DILI severity category (in vivo): vLess-DILI-Concern |
| C[C@@H](Cc1ccccc1)NC(=O)[C@@H](N)CCCCN [lisdexamfetamine] | -VE | Ambiguous DILI-concern | – |
| O=NN(CCCl)C(=O)NC1CCCCC1 [lomustine] | – | – | DILI +VE (5-8), DILI -VE (-4) (in vivo): +VE; DILI severity category (in vivo): vLess-DILI-Concern |
| N[C@@H](C(=O)N[C@@H]1C(=O)N2C(C(=O)O)=C(Cl)CC[C@H]12)c1ccccc1 [loracarbef] | – | – | DILI +VE (5-8), DILI -VE (-4) (in vivo): +VE; DILI severity category (in vivo): vLess-DILI-Concern |
| O=C1Nc2ccc(Cl)cc2C(c2ccccc2Cl)=NC1O (centres unmarked) [lorazepam] | -VE | Ambiguous DILI-concern | – |
| CN1CCN(C2=Nc3ccccc3Oc3ccc(Cl)cc32)CC1 [loxapine] | – | – | DILI +VE (5-8), DILI -VE (-4) (in vivo): -VE; DILI severity category (in vivo): Ambiguous DILI-concern |
| OC[C@@H](O)[C@@H](O)[C@H](O)[C@H](O)CO [mannitol] | -VE | vNo-DILI-Concern | – |
| CCCCCc1cc(O)c2c(c1)OC(C)(C)[C@@H]1CCC(C)=C[C@@H]21 [marinol] | – | – | DILI +VE (5-8), DILI -VE (-4) (in vivo): -VE; DILI severity category (in vivo): Ambiguous DILI-concern |
| Cc1ccc(Cl)c(Nc2ccccc2C(=O)O)c1Cl [meclofenamic acid] | -VE | Ambiguous DILI-concern | – |
| N[C@@H](Cc1ccc(N(CCCl)CCCl)cc1)C(=O)O [melphalan] | +VE | vLess-DILI-Concern | – |
| CN1CCCC(CN2c3ccccc3Sc3ccccc32)C1 (centres unmarked) [mepazine] | +VE | vMost-DILI-Concern | – |
| C[N+]1(C)CCCC(OC(=O)C(O)(c2ccccc2)c2ccccc2)C1 (centres unmarked) [mepenzolate] | -VE | vNo-DILI-Concern | – |
| CCCC(C)(COC(N)=O)COC(N)=O [meprobamate] | -VE | vNo-DILI-Concern | – |
| O=S(=O)(O)CCS [mesna] | – | – | DILI +VE (5-8), DILI -VE (-4) [3]: -VE; DILI severity category [4]: Ambiguous DILI-concern |
| CN1CCCCC1CCN1c2ccccc2Sc2ccc([S+](C)[O-])cc21 (centres unmarked) [mesoridazine] | – | – | DILI +VE (5-8), DILI -VE (-4) [3]: -VE; DILI severity category [4]: Ambiguous DILI-concern |
| Cc1cc(C)cc(OCC2CNC(=O)O2)c1 (centres unmarked) [metaxalone] | – | – | DILI +VE (5-8), DILI -VE (-4) [3]: +VE; DILI severity category [4]: vLess-DILI-Concern |
| CCC(=O)C(CC(C)N(C)C)(c1ccccc1)c1ccccc1 (centres unmarked) [methadone] | – | – | DILI +VE (5-8), DILI -VE (-4) (in vivo): -VE; DILI severity category (in vivo): Ambiguous DILI-concern |
| CC(=O)/N=c1/sc(S(N)(=O)=O)nn1C [methazolamide] | – | – | DILI +VE (5-8), DILI -VE (-4) [3]: +VE; DILI severity category [4]: vLess-DILI-Concern |
| C1N2CN3CN1CN(C2)C3 [methenamine hippurate] | – | – | DILI +VE (5-8), DILI -VE (-4) [3]: -VE; DILI severity category [4]: Ambiguous DILI-concern |
| C=CCC1(C(C)C#CCC)C(=O)N=C(O)N(C)C1=O (centres unmarked) [methohexital] | – | – | DILI +VE (5-8), DILI -VE (-4) [3]: -VE; DILI severity category [4]: Ambiguous DILI-concern |
| CN1C(=O)CC(C)(c2ccccc2)C1=O (centres unmarked) [methsuximide] | – | – | DILI +VE (5-8), DILI -VE (-4) [3]: -VE; DILI severity category [4]: vNo-DILI-Concern |
